Results published in patent US9340590B2 (priority 2011, dated 2016).
Like-named read-outs stand apart in the source and are kept apart here. Positions of bridges follow the written chain, without caps; N, C: chain ends. Non-standard residues stand in square brackets, D forms with d. Residues, ends and D or L forms follow the SMILES beside them. 1Nal = N[C@@H](Cc1cccc2ccccc12)C(=O)O

Columns and labels:
Test in all cases: cell-based
hNav1.7 = hNav1.7 (Homo sapiens, UniProt Q15858); format: cell-based
hNav1.5 = hNav1.5 (Homo sapiens, UniProt Q14524); settings: IonWorks Quattro, read-out: IWQ Use Nav1.5
hNav1.3 = hNav1.3 (Homo sapiens, UniProt Q9NY46); settings: IonWorks Quattro, read-out: IWQ Use Nav1.3
[1] = Table 23, IonWorks Quattro, use, […], read-out: IWQ Use Nav1.7

Chain of hNav1.7 (Q15858 whole entry, looked up): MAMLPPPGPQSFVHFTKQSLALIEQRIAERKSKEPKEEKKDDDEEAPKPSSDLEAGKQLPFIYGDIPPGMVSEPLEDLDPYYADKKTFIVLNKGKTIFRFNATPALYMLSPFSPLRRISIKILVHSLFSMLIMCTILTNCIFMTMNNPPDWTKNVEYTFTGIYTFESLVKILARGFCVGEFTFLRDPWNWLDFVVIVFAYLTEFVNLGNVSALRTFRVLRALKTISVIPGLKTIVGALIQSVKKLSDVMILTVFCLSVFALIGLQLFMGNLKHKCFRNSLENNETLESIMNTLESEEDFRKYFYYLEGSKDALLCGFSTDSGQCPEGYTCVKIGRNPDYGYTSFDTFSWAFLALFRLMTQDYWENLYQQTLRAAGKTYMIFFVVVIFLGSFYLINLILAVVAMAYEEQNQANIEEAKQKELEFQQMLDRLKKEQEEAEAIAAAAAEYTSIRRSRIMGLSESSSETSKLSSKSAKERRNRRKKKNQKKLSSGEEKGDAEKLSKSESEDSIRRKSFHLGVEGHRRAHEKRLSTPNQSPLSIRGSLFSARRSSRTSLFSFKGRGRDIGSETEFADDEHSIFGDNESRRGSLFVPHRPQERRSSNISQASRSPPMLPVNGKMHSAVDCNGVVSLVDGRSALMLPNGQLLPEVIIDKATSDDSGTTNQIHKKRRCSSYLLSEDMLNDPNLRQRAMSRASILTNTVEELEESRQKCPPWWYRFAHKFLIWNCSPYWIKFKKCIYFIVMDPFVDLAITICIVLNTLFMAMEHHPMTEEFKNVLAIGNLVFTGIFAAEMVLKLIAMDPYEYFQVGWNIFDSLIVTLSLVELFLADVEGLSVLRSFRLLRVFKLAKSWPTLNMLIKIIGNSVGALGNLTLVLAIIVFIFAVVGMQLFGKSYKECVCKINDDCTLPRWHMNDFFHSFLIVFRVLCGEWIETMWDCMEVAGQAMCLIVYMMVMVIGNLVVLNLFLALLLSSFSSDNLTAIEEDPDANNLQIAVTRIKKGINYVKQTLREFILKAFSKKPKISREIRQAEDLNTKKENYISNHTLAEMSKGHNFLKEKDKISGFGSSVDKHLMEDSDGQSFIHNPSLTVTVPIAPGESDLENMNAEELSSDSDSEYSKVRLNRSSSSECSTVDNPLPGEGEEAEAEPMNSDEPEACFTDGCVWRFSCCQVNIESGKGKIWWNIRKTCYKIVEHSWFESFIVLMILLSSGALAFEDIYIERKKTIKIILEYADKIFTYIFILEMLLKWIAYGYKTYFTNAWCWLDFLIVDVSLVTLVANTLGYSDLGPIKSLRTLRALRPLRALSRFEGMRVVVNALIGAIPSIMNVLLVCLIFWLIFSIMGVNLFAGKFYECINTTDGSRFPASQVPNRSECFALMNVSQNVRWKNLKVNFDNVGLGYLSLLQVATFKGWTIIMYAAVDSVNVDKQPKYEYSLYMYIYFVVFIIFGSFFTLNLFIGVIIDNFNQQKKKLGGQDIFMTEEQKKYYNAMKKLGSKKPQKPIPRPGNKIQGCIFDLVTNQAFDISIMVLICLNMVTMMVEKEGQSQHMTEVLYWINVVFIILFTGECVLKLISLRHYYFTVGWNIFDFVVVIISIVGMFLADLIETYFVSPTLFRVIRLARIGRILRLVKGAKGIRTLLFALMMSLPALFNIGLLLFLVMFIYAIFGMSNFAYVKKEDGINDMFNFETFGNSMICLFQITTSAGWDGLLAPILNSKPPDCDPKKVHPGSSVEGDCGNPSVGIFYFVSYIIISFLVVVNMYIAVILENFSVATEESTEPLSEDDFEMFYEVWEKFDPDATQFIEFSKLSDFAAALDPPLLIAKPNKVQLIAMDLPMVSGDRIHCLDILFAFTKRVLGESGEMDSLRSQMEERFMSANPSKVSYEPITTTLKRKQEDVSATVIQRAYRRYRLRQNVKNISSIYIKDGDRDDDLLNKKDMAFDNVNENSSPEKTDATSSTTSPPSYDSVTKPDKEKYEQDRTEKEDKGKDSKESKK
Chain of hNav1.3 (Q9NY46 whole entry, looked up): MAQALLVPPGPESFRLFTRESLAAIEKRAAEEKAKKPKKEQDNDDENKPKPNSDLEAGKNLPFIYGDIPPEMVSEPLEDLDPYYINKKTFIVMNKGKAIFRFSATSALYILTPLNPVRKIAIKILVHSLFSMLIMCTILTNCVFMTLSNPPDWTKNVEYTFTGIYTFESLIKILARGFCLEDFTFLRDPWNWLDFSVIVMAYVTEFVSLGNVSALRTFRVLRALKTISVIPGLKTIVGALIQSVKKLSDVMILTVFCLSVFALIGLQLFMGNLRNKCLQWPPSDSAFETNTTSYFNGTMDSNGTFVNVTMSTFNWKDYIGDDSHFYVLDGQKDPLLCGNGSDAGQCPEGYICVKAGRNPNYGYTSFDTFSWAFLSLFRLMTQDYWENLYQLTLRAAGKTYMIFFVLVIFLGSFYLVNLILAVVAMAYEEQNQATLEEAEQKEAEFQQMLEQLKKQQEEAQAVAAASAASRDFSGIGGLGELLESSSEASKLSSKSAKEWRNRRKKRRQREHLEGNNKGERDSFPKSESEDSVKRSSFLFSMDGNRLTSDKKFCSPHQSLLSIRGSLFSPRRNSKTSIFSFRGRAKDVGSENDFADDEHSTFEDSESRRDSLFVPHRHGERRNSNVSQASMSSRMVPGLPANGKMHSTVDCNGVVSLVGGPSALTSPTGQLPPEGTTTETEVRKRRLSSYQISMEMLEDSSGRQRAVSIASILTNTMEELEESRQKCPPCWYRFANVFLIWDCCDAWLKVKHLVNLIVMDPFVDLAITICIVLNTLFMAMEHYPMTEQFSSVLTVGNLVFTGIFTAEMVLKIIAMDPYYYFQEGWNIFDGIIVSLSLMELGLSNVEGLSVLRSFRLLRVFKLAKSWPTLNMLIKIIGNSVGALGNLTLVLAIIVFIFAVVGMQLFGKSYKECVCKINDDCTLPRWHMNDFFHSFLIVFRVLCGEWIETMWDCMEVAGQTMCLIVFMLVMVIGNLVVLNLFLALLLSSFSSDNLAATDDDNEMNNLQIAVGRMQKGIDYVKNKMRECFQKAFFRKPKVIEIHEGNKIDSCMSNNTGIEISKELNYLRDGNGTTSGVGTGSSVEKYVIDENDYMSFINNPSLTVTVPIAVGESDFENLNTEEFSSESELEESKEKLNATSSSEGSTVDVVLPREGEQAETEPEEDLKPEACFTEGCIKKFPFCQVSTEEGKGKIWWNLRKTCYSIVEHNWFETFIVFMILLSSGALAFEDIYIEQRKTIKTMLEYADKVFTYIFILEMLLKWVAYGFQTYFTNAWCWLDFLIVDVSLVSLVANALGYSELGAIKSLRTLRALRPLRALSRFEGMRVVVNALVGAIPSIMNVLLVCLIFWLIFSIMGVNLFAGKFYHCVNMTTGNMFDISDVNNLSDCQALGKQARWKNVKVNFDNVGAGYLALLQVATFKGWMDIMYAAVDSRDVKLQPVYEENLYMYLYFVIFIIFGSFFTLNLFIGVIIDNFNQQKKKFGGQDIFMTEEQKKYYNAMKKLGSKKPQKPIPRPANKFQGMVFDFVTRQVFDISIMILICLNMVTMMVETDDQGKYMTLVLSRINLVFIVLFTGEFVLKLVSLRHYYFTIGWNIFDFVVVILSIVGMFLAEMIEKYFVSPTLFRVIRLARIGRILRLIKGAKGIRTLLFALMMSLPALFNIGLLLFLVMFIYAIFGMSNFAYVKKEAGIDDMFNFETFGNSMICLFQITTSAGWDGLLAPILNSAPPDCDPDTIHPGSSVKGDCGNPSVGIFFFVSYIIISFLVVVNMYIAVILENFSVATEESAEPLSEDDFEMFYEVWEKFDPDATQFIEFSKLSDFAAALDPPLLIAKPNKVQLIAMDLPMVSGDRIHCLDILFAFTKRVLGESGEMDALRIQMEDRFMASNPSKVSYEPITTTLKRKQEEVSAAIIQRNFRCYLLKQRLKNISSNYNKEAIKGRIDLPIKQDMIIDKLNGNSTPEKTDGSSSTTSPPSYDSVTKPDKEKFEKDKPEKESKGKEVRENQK

## CC[C@H](C)[C@H](NC(=O)[C@@H](NC(=O)[C@H](Cc1ccc(O)cc1)NC(=O)[C@H](CCCCN)NC(=O)[C@@H]1CSSC[C@@H]2NC(=O)[C@H](CCCCN)NC(=O)[C@H](CC(=O)O)NC(=O)[C@H](CC(N)=O)NC(=O)[C@H](CC(=O)O)NC(=O)[C@@H]3CCCN3C(=O)[C@H]([C@@H](C)CC)NC(=O)[C@@H]3CSSC[C@H](NC(=O)[C@H](C(C)C)NC(=O)[C@H](CC(C)C)NC(=O)[C@H](CC(N)=O)NC(=O)[C@@H]4CCCN4C(=O)[C@H](CCCNC(=N)N)NC(=O)[C@H](CSSC[C@H](NC(=O)[C@@H](N)CC(=O)O)C(=O)N[C@@H](CC(C)C)C(=O)NCC(=O)N[C@@H](Cc4ccccc4)C(=O)N[C@@H](CCSC)C(=O)N[C@@H](CCCNC(=N)N)C(=O)N[C@@H](CCCCN)C(=O)N3)NC2=O)C(=O)N[C@@H](CO)C(=O)N[C@@H](CCCNC(=N)N)C(=O)N[C@@H]([C@@H](C)O)C(=O)N[C@@H](Cc2c[nH]cn2)C(=O)N[C@@H](CCCCN)C(=O)N[C@@H](Cc2c[nH]c3ccccc23)C(=O)N1)C(C)C)C(N)=O [compound 96] (H-DCLGFMRKCIPDNDKCCRPNLVCSRTHKWCKYVI-NH2; disulfide 2-17, 9-23, 16-30)
hNav1.7; IonWorks Quattro, use-dependent, […], read-out: IWQ Use Nav1.7
  IC50: 280 nM
hNav1.5; use-dependent, […]
  IC50: 10800 nM
hNav1.3; use-dependent, […]
  IC50: 280 nM

## CC[C@H](C)[C@@H]1NC(=O)[C@@H]2CSSC[C@@H]3NC(=O)[C@H](C(C)C)NC(=O)[C@H](CC(C)C)NC(=O)[C@H](CC(N)=O)NC(=O)[C@@H]4CCCN4C(=O)[C@H](CCCNC(=N)N)NC(=O)[C@H](CSSC[C@H](NC(=O)[C@@H](N)CC(=O)O)C(=O)N[C@@H](CC(C)C)C(=O)NCC(=O)N[C@@H](Cc4ccccc4)C(=O)N[C@@H](CCSC)C(=O)N[C@@H](CCCNC(=N)N)C(=O)N[C@@H](CCCCN)C(=O)N2)NC(=O)[C@H](CSSC[C@@H](C(=O)N[C@@H](CCCCN)C(=O)N[C@@H](CCCCN)C(=O)N[C@H](C(=O)N[C@@H](Cc2cccc4ccccc24)C(=O)N[C@@H](Cc2c[nH]c4ccccc24)C(N)=O)C(C)C)NC(=O)[C@H](Cc2c[nH]c4ccccc24)NC(=O)[C@H](CCCCN)NC(=O)[C@H](Cc2c[nH]cn2)NC(=O)[C@H]([C@@H](C)O)NC(=O)[C@H](CCCNC(=N)N)NC(=O)[C@H](CO)NC3=O)NC(=O)[C@H](CCCCN)NC(=O)[C@H](CC(=O)O)NC(=O)[C@H](CC(N)=O)NC(=O)[C@H](CC(=O)O)NC(=O)[C@@H]2CCCN2C1=O [compound 99] (H-DCLGFMRKCIPDNDKCCRPNLVCSRTHKWCKKV[1Nal]W-NH2; disulfide 2-17, 9-23, 16-30)
hNav1.7; IonWorks Quattro, use-dependent block, hNav1.7, read-out: IWQ Use Nav1.7
  IC50: 110 nM
hNav1.5; use-dependent block, hNav1.5
  IC50: 9140 nM
hNav1.3; use-dependent block, hNav1.3
  IC50: 160 nM

## CC[C@H](C)[C@@H]1NC(=O)[C@@H]2CSSC[C@@H]3NC(=O)[C@H](C(C)C)NC(=O)[C@H](CC(C)C)NC(=O)[C@H](CC(N)=O)NC(=O)[C@@H]4CCCN4C(=O)[C@H](CCCNC(=N)N)NC(=O)[C@H](CSSC[C@H](NC(=O)[C@@H](N)CC(=O)O)C(=O)N[C@@H](CC(C)C)C(=O)NCC(=O)N[C@@H](Cc4ccccc4)C(=O)N[C@@H](CCSC)C(=O)N[C@@H](CCCNC(=N)N)C(=O)N[C@@H](CCCCN)C(=O)N2)NC(=O)[C@H](CSSC[C@@H](C(=O)N[C@@H](CCCCN)C(=O)N[C@@H](Cc2ccc(O)cc2)C(=O)N[C@H](C(=O)N[C@@H](C)C(N)=O)C(C)C)NC(=O)[C@H](Cc2c[nH]c4ccccc24)NC(=O)[C@H](CCCCN)NC(=O)[C@H](Cc2cnc[nH]2)NC(=O)[C@H]([C@@H](C)O)NC(=O)[C@H](CCCNC(=N)N)NC(=O)[C@H](CO)NC3=O)NC(=O)[C@H](CCCCN)NC(=O)[C@H](CC(=O)O)NC(=O)[C@H](CC(N)=O)NC(=O)[C@H](CC(=O)O)NC(=O)[C@@H]2CCCN2C1=O [compound 101] (H-DCLGFMRKCIPDNDKCCRPNLVCSRTHKWCKYVA-NH2; disulfide 2-17, 9-23, 16-30)
hNav1.7
  IC50: 7190 nM
hNav1.5; use-dependent, […]
  IC50: 9330 nM
hNav1.3; use-dependent, […]
  IC50: 4760 nM

## CC[C@H](C)[C@@H]1NC(=O)[C@@H]2CSSC[C@@H]3NC(=O)[C@H](C(C)C)NC(=O)[C@H](CC(C)C)NC(=O)[C@H](CC(N)=O)NC(=O)[C@@H]4CCCN4C(=O)[C@H](CCCNC(=N)N)NC(=O)[C@H](CSSC[C@H](NC(=O)[C@@H](N)CC(=O)O)C(=O)N[C@@H](CC(C)C)C(=O)NCC(=O)N[C@@H](Cc4ccccc4)C(=O)N[C@@H](CCSC)C(=O)N[C@@H](CCCNC(=N)N)C(=O)N[C@@H](CCCCN)C(=O)N2)NC(=O)[C@H](CSSC[C@@H](C(=O)N[C@@H](CCCCN)C(=O)N[C@@H](Cc2ccc(O)cc2)C(=O)N[C@H](C(=O)N[C@@H](Cc2ccccc2)C(N)=O)C(C)C)NC(=O)[C@H](Cc2c[nH]c4ccccc24)NC(=O)[C@H](CCCCN)NC(=O)[C@H](Cc2cnc[nH]2)NC(=O)[C@H]([C@@H](C)O)NC(=O)[C@H](CCCNC(=N)N)NC(=O)[C@H](CO)NC3=O)NC(=O)[C@H](CCCCN)NC(=O)[C@H](CC(=O)O)NC(=O)[C@H](CCCNC(=N)N)NC(=O)[C@H](CC(=O)O)NC(=O)[C@@H]2CCCN2C1=O [compound 103] (H-DCLGFMRKCIPDRDKCCRPNLVCSRTHKWCKYVF-NH2; disulfide 2-17, 9-23, 16-30)
hNav1.7; IonWorks Quattro, Use, read-out: IWQ Use Nav1.7
  IC50: 160 nM
hNav1.5; Use
  IC50: 16000 nM
hNav1.3; Use
  IC50: 220 nM

## CC[C@H](C)[C@@H]1NC(=O)[C@@H]2CSSC[C@@H]3NC(=O)[C@H](C(C)C)NC(=O)[C@H](CC(C)C)NC(=O)[C@H](CC(N)=O)NC(=O)[C@@H]4CCCN4C(=O)[C@H](CCCNC(=N)N)NC(=O)[C@H](CSSC[C@H](NC(=O)[C@@H](N)CC(=O)O)C(=O)N[C@@H](CC(C)C)C(=O)NCC(=O)N[C@@H](Cc4ccccc4)C(=O)N[C@@H](CCSC)C(=O)N[C@@H](CCCNC(=N)N)C(=O)N[C@@H](CCCCN)C(=O)N2)NC(=O)[C@H](CSSC[C@@H](C(=O)N[C@@H](CCCCN)C(=O)N[C@@H](Cc2ccc(O)cc2)C(=O)N[C@H](C(=O)N[C@@H](Cc2ccccc2)C(N)=O)C(C)C)NC(=O)[C@H](CCCNC(=N)N)NC(=O)[C@H](CCCCN)NC(=O)[C@H](Cc2cnc[nH]2)NC(=O)[C@H]([C@@H](C)O)NC(=O)[C@H](CCCNC(=N)N)NC(=O)[C@H](CO)NC3=O)NC(=O)[C@H](CCCCN)NC(=O)[C@H](CC(=O)O)NC(=O)[C@H](CC(N)=O)NC(=O)[C@H](CC(=O)O)NC(=O)[C@@H]2CCCN2C1=O [compound 104] (H-DCLGFMRKCIPDNDKCCRPNLVCSRTHKRCKYVF-NH2; disulfide 2-17, 9-23, 16-30)
hNav1.7; Table 24, IonWorks Quattro, use, […], read-out: IWQ Use Nav1.7
  IC50: 9730 nM
hNav1.5; Table 24, use, […]
  IC50: 18800 nM
hNav1.3; Table 24, use, […]
  IC50: 11400 nM

## CC[C@H](C)[C@@H]1NC(=O)[C@@H]2CSSC[C@@H]3NC(=O)[C@H](C(C)C)NC(=O)[C@H](CC(C)C)NC(=O)[C@H](CC(N)=O)NC(=O)[C@@H]4CCCN4C(=O)[C@H](CCCNC(=N)N)NC(=O)[C@H](CSSC[C@H](NC(=O)[C@@H](N)CC(=O)O)C(=O)N[C@@H](CC(C)C)C(=O)NCC(=O)N[C@@H](Cc4ccccc4)C(=O)N[C@@H](CCSC)C(=O)N[C@@H](CCCNC(=N)N)C(=O)N[C@@H](CCCCN)C(=O)N2)NC(=O)[C@H](CSSC[C@@H](C(=O)N[C@@H](CCCCN)C(=O)N[C@@H](Cc2ccc(O)cc2)C(=O)N[C@H](C(=O)N[C@@H](Cc2ccccc2)C(N)=O)C(C)C)NC(=O)[C@H](Cc2c[nH]c4ccccc24)NC(=O)[C@H](CCCCN)NC(=O)[C@H](Cc2ccccc2)NC(=O)[C@H]([C@@H](C)O)NC(=O)[C@H](CCCNC(=N)N)NC(=O)[C@H](CO)NC3=O)NC(=O)[C@H](CCCCN)NC(=O)[C@H](CC(=O)O)NC(=O)[C@H](CC(N)=O)NC(=O)[C@H](CC(=O)O)NC(=O)[C@@H]2CCCN2C1=O [compound 109] (H-DCLGFMRKCIPDNDKCCRPNLVCSRTFKWCKYVF-NH2; disulfide 2-17, 9-23, 16-30)
hNav1.7; [1]
  IC50: 220 nM
hNav1.5; Table 23, use, […]
  IC50: 2060 nM
hNav1.3; Table 23, use, […]
  IC50: 530 nM

## CC[C@H](C)[C@@H]1NC(=O)[C@@H]2CSSC[C@@H]3NC(=O)[C@H](C(C)C)NC(=O)[C@H](CC(C)C)NC(=O)[C@H](CC(N)=O)NC(=O)[C@@H]4CCCN4C(=O)[C@H](CCCNC(=N)N)NC(=O)[C@H](CSSC[C@H](NC(=O)[C@@H](N)CC(=O)O)C(=O)N[C@@H](CC(C)C)C(=O)NCC(=O)N[C@@H](Cc4ccccc4)C(=O)N[C@@H](CCSC)C(=O)N[C@@H](CCCNC(=N)N)C(=O)N[C@@H](CCCCN)C(=O)N2)NC(=O)[C@H](CSSC[C@@H](C(=O)N[C@@H](CCCCN)C(=O)N[C@@H](Cc2ccc(O)cc2)C(=O)N[C@H](C(=O)N[C@@H](Cc2ccccc2)C(N)=O)C(C)C)NC(=O)[C@H](Cc2c[nH]c4ccccc24)NC(=O)[C@H](CCCCN)NC(=O)[C@H](Cc2ccc(O)cc2)NC(=O)[C@H]([C@@H](C)O)NC(=O)[C@H](CCCNC(=N)N)NC(=O)[C@H](CO)NC3=O)NC(=O)[C@H](CCCCN)NC(=O)[C@H](CC(=O)O)NC(=O)[C@H](CC(N)=O)NC(=O)[C@H](CC(=O)O)NC(=O)[C@@H]2CCCN2C1=O [compound 110] (H-DCLGFMRKCIPDNDKCCRPNLVCSRTYKWCKYVF-NH2; disulfide 2-17, 9-23, 16-30)
hNav1.7; [1]
  IC50: 190 nM
hNav1.5; Table 23, use, […]
  IC50: 6390 nM
hNav1.3; Table 23, use, […]
  IC50: 310 nM
